Experimental findings from ChEMBL document CHEMBL1201862, “PubChem BioAssay data set” (2004) are described below.

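Dose response: 5 concentrations. Exposure: 48 h. Format: 96-well plates. Endpoint: linear interpolation; highest concentration if not reached. GI50 marks 50% less growth.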 The source made the active and inactive calls. Cut-off read from the data, not from the text of the source: active = GI50 up to about 1.1 µM and inactive = higher.

Among the test systems are A498; A549; ACHN; DU-145; EKVX; HCC 2998; HT-29; KM12; LOX IMVI; MDA-MB-231; MDA-MB-435; Malme-3M; NCI-H522; OVCAR-4; PC-3; SK-MEL-2; SN12C; TK-10; UACC-62; MOLT-4.
Holding throughout (assay): growth of human tumour cells (NCI), 48 h

In the case of `c1ccc(CCN2CCOCC2)nc1`, the GI50 in the test on A498, with A549, with ACHN, with DU-145, in the test with EKVX and in the test with HCC 2998 was > 100 µM (inactive) throughout. Besides, the GI50 in the test on HT-29, with KM12, in the test on LOX IMVI, in the test with MDA-MB-231, with MDA-MB-435 and in the test on Malme-3M was > 100 µM (inactive) in each case. Besides, the GI50 in the test with NCI-H522, in the test with OVCAR-4, in the test on PC-3, with SK-MEL-2, in the test with SN12C and with TK-10 was > 100 µM (inactive) in each case. In addition, the GI50 with UACC-62 was > 100 µM (inactive).
For the molecule `O=C(NCC(O)COc1ccccc1)c1ccccc1O` (stereo not given), the GI50 in the test on A498, with A549, in the test on ACHN, with DU-145, with EKVX and with HCC 2998 was > 100 µM (inactive) each time. Also, the GI50 in the test on KM12 was > 100 µM (inactive); in the test with LOX IMVI, > 100 µM (inactive); with MDA-MB-231, > 100 µM (inactive); in the test with MDA-MB-435, > 100 µM (inactive); in the test with MOLT-4 it was 14.5 µM (inactive); in the test with Malme-3M, > 100 µM (inactive). Also, the GI50 with NCI-H522 was 55.6 µM (inactive); in the test with OVCAR-4 it was > 100 µM (inactive); in the test with PC-3, 66.1 µM (inactive); with SK-MEL-2, > 100 µM (inactive); with SN12C, > 100 µM (inactive); in the test on TK-10 it was > 100 µM (inactive). Moreover, in the test with UACC-62, the GI50 was 55 µM (inactive).
Take `N#Cc1ccc2oc3ccc(C#N)cc3c(=O)c2c1`: the GI50 in the test on A498 is 14.8 µM (inactive); with A549, 23 µM (inactive); in the test with ACHN it was > 100 µM (inactive); in the test on DU-145, 30.8 µM (inactive); in the test on HCC 2998, 58.2 µM (inactive); in the test on HT-29 it was 20.2 µM (inactive). Further, the GI50 in the test with KM12 was 46.5 µM (inactive); in the test on MDA-MB-231, > 100 µM (inactive); in the test with MDA-MB-435, 34.4 µM (inactive); with MOLT-4 it was 23.6 µM (inactive); in the test with Malme-3M, 24.2 µM (inactive); with NCI-H522 it was 58.2 µM (inactive). The GI50 in the test on OVCAR-4 is 18 µM (inactive); in the test with PC-3 it was 24.7 µM (inactive); in the test with SK-MEL-2, 19.6 µM (inactive); in the test with SN12C, > 100 µM (inactive); with TK-10 it was 24.3 µM (inactive); with UACC-62, 19 µM (inactive).
Consider `Cc1ccc(NC(=O)c2ccc(OP(=O)(O)Nc3ccc(C)cc3)cc2)cc1`, for which the GI50 with A498, in the test with A549, in the test on ACHN, in the test on DU-145, in the test on EKVX and in the test with HCC 2998 was > 100 µM (inactive) each time. Moreover, the GI50 with HT-29, with KM12, in the test with LOX IMVI, in the test on MDA-MB-231, in the test on MDA-MB-435 and in the test with MOLT-4 was > 100 µM (inactive) in each case. For the same molecule, the GI50 is > 100 µM (inactive) with Malme-3M; 78.3 µM (inactive) in the test with NCI-H522; > 100 µM (inactive) with OVCAR-4; > 100 µM (inactive) with PC-3; 12 µM (inactive) in the test on SK-MEL-2; > 100 µM (inactive) in the test on SN12C. For the same molecule, the GI50 in the test on TK-10 and in the test with UACC-62 was > 100 µM (inactive) each time.
For the molecule `CO[C@H]1O[C@@H]2OC3(C)CCC4[C@H](C)CCC([C@H]1C)[C@]42OO3` (stereo not given in full), the GI50 with A498, with A549, with ACHN, in the test with DU-145, in the test on EKVX and in the test with HCC 2998 was > 100 µM (inactive) throughout. Moreover, the GI50 with HT-29 is > 100 µM (inactive); in the test with LOX IMVI it was > 100 µM (inactive); in the test with MDA-MB-231, > 100 µM (inactive); with MDA-MB-435, > 100 µM (inactive); in the test on MOLT-4 it was 36.6 µM (inactive); in the test with Malme-3M, > 100 µM (inactive). In addition, the GI50 with NCI-H522 is > 100 µM (inactive); in the test with OVCAR-4, > 100 µM (inactive); with PC-3, 76 µM (inactive); in the test with SK-MEL-2, > 100 µM (inactive); with SN12C, > 100 µM (inactive); with UACC-62 it was > 100 µM (inactive).
For the molecule `CNc1ncnc2c1nc(NC1CCCC1)n2C1OC(CO)C(O)C1O` (stereo not given), the GI50 in the test with A498, with A549, with ACHN, with DU-145, with HCC 2998 and with HT-29 was > 100 µM (inactive) throughout. Moreover, the GI50 in the test on KM12, in the test with MDA-MB-231, with MDA-MB-435, in the test on MOLT-4, in the test with Malme-3M and with NCI-H522 was > 100 µM (inactive) throughout. In addition, the GI50 in the test on OVCAR-4, in the test with PC-3, in the test on SK-MEL-2, with SN12C, with TK-10 and with UACC-62 was > 100 µM (inactive) in each case.
Consider `CC(O)c1cc2c(s1)C(=O)c1scc(C(C)O)c1C2=O` (stereo not given), for which the GI50 in the test on A498 is 2.2 µM (inactive); in the test with A549 it was 0.67 µM (active); with ACHN, 0.853 µM (active); in the test with DU-145, 0.614 µM (active); in the test on EKVX it was 0.991 µM (active); in the test with HCC 2998, 1.66 µM (inactive). Moreover, the GI50 was 2.43 µM (inactive) in the test on HT-29; 1.79 µM (inactive) in the test on KM12; 0.172 µM (active) with LOX IMVI; 0.316 µM (active) with MDA-MB-231; 0.175 µM (active) in the test on MDA-MB-435; 0.753 µM (active) with MOLT-4. Further, the GI50 with Malme-3M is 0.172 µM (active); with NCI-H522, 0.628 µM (active); in the test on OVCAR-4, 0.745 µM (active); in the test with PC-3 it was 0.388 µM (active); in the test on SK-MEL-2, 0.224 µM (active); in the test on SN12C it was 0.53 µM (active). The GI50 is 1.69 µM (inactive) with TK-10 and 0.245 µM (active) in the test on UACC-62.
As to `O=C(Nc1ccn(C2CCC(COC(c3ccccc3)(c3ccccc3)c3ccccc3)O2)c(=O)n1)c1ccccc1` (stereo not given), the GI50 with A498 was 5 µM (inactive); in the test with A549, 4.21 µM (inactive); in the test with ACHN, 3.8 µM (inactive); with DU-145, 7.91 µM (inactive); in the test on EKVX, 5.11 µM (inactive); in the test on HCC 2998, 11.5 µM (inactive). The GI50 in the test with HT-29 is 2.4 µM (inactive); in the test on KM12 it was 5.87 µM (inactive); with LOX IMVI, 2.72 µM (inactive); in the test on MDA-MB-231 it was 5.87 µM (inactive); in the test on MDA-MB-435, 3.42 µM (inactive); in the test with MOLT-4, 2.56 µM (inactive). For the same molecule, the GI50 in the test on Malme-3M is 3.18 µM (inactive); in the test with NCI-H522, 5.32 µM (inactive); in the test on OVCAR-4, 2.82 µM (inactive); in the test with PC-3, 1.5 µM (inactive); in the test on SK-MEL-2, 2.48 µM (inactive); in the test on SN12C, 1.88 µM (inactive). For the same molecule, the GI50 is 5.12 µM (inactive) with TK-10 and 5.5 µM (inactive) in the test with UACC-62.
As for `COc1ccc2[nH]c(Cl)c(/C=C3/C(=O)N(c4ccccc4)c4ccccc43)c2c1`, the GI50 in the test on A498 is 8.17 µM (inactive); in the test on A549 it was 5.31 µM (inactive); in the test with ACHN, 7.57 µM (inactive); in the test with DU-145, 18.3 µM (inactive); with EKVX it was 7.08 µM (inactive); in the test with HCC 2998, 4.24 µM (inactive). Besides, the GI50 was 3.98 µM (inactive) in the test with HT-29; 3.25 µM (inactive) in the test on KM12; 3.29 µM (inactive) in the test on LOX IMVI; 6.35 µM (inactive) in the test with MDA-MB-231; 1.46 µM (inactive) with MDA-MB-435; 3.82 µM (inactive) with MOLT-4. The GI50 is 6.76 µM (inactive) in the test with Malme-3M; 3.25 µM (inactive) with NCI-H522; 3.7 µM (inactive) in the test with PC-3; 2.92 µM (inactive) in the test on SK-MEL-2; 4.78 µM (inactive) with SN12C; 10.8 µM (inactive) in the test on TK-10. The GI50 in the test with UACC-62 was 5.21 µM (inactive).
`C=C1CC[C@H]2C(C)=CC[C@H]3C(=C)C(=O)O[C@@H]3[C@@H]12` [EREMANTHIN]: the GI50 with A498, in the test with A549, in the test with ACHN, in the test on DU-145, in the test on EKVX and in the test with HCC 2998 was > 100 µM (inactive) throughout. Further, the GI50 in the test on HT-29, with LOX IMVI, in the test on MDA-MB-231, with MDA-MB-435, in the test on MOLT-4 and in the test on Malme-3M was > 100 µM (inactive) in each case. For the same molecule, the GI50 in the test on NCI-H522, in the test with OVCAR-4, in the test on PC-3, in the test on SK-MEL-2, with SN12C and in the test on TK-10 was > 100 µM (inactive) each time. In addition, the GI50 with UACC-62 is > 100 µM (inactive).
